From article PMC4301629 (PLoS ONE, 2015)

Legend:
α1A-AR [1] = target: T1, α1A-AR (Homo sapiens, UniProt P35348); test: LC-MS detection of IP1, IP2 and IP3 in α1A-AR_CHO stable cells; type: cell-based; parameters: expressed in transfected cells; settings: α1A-AR CHO, Iso up to 1 mM
T1 sequence (P35348 1-466): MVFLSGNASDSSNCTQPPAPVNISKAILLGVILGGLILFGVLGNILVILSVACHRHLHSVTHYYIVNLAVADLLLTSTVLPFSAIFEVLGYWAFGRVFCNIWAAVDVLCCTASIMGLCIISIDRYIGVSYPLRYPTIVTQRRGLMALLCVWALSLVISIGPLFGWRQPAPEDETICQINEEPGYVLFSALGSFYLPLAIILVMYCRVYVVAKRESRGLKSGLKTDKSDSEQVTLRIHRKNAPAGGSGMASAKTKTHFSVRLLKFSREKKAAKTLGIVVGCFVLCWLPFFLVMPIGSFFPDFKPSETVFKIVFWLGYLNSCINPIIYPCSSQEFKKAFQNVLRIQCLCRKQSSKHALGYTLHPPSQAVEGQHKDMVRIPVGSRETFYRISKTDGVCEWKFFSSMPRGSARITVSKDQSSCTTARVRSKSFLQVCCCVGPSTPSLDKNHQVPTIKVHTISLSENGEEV
Procedure: (§1) After that, the medium was replaced with agonist solution in assay buffer (20 mM HEPES, 10 mM glucose, 1.8 mM CaCl2, 0.5 mM MgSO4, in HBSS 1X buffer, 50 mM LiCl) and cells were incubated at 37°C for 30 min. Stimulation was stopped by exchange of assay buffer with lysis buffer (100 μL 0.1N HCl/MeOH), and lysis proceeded for 30 min at 4°C. Cellular levels of inositol phosphates were determined using a Thermo LC-MS detection system following a published protocol. Chromatography was performed employing a BioBasic column AX (50 × 2.1 mm, Thermo). The mobile phase consisted of solvent A: 10 mM ammonium acetate, pH 6 in 30/70 acetonitrile/water, and solvent B: 1 mM ammonium acetate, pH 11 in 30/70 acetonitrile/water. A gradient solvent system was used starting with 0% solvent B, and analytes were eluted by increasing solvent B to 100% over 3 min. Each data point represents the average of triplicate determinations and each experiment was performed at least three times independently.
IP1, IP2, and IP3 levels were determined via LC-MS. Plots are representative of three independent experiments with each data point being the average of triplicates.

α1A-AR [2] = target: T1, α1A-AR; test: LC-MS detection of IP1, IP2 and IP3 in α1A-AR transduced HEK-293/EBNA cells; type: cell-based; parameters: expressed in transfected cells; host or cells: HEK-293/EBNA (baculovirus transduction, NaBu induction); settings: Iso up to 10 mM
Procedure: as §1, with “Virally transduced HEK-293/EBNA cells were resuspended in growth medium and seeded in poly-D-lysine coated 96-well black plates at a density of 100,000 cells/0.1 mL per well, Cells were allowed to attach for 2 hours at 37°C in a humidified atmosphere of 95% air and 5% CO2. After” for “After”

HEK293/EBNA cells = test: IP accumulation (IP-One HTRF) in untransduced HEK-293/EBNA cells; type: cell-based; settings: HEK293/EBNA untransduced
α1A-AR [3] = target: T1, α1A-AR; test: Ca2+ transient response (FLIPR, fluo3) in α1A-AR transduced HEK-293/EBNA cells; type: cell-based; parameters: expressed in transfected cells; host or cells: HEK-293/EBNA (baculovirus transduction, NaBu induction); settings: 100 nM NE, α1A-AR_HEK-293/EBNA
Procedure: (§2) Prior to experiments, cells were transduced with baculovirus strains designed for transient expression of α1A-AR or aldehyde oxidase (negative control). This was performed by incubating cells with virus (MOI 100–150) for 3 to 4 h, followed by exchange into fresh serum free growth medium supplemented with 4 mM sodium butyrate (NaBu). Cells were grown for another 14 to 18 h and then examined for agonist-evoked responses in transient Ca^2+ release, IP accumulation or pERK activation assays. The surface receptor expression density was determined by flow cytometry via immunofluorescence labeling of an N-terminal HA epitope tag on the receptor and radioligand binding in partially purified membranes.
(§3) Cells were resuspended in Hank’s balanced salt solution (Invitrogen) supplemented with 2 mM CaCl2, 10 mM HEPES pH 7.4, 2.5 mM probenecid, plus 1g/L each of glucose and bovine serum albumin (BSA), and seeded in poly-D-lysine coated 96-well black plates with transparent bottom (Costar) at a density of 50,000 cells/0.1 mL per well. Cells were then incubated for 1 h at 37°C with an additional 0.1 mL of buffer containing 4 μM fluo3-AM that was diluted from a stock solution containing 1 mM fluo3-AM dye in DMSO with 10% pluronic acid. After dye loading incubation, plates were washed twice with 100 μL of buffer and refilled with 100 μL of assay buffer. In experiments testing the effect of antagonists, 25 μL of buffer from wells of washed cells were replaced with 25 μL of vehicle or 4× antagonist solution. Pre-incubation of ligand with dye-loaded cells proceeded for 5–30 minutes immediately prior to measurements of agonist-evoked responses. Agonist-evoked Ca^2+ mobilization responses of cell populations were monitored at room temperature simultaneously in all wells of the assay plate using the plate-imaging fluorometric reader FLIPR (MDS Analytical Technologies, Sunnyvale, CA). […] The amplitudes of Ca^2+ transient responses are reported as ΔF/F0, or fold-change in Ca^2+ dye fluorescence relative to the baseline signal ΔF/F0 = (F-F0)/F0 +1 (where ΔF is maximal fluorescence intensity observed following agonist application, F0 = baseline fluorescence, or average intensity measured over the 10 s interval prior to agonist application). Image acquisition rates were varied from 1 Hz during the first 100 s of measurements to 0.5 Hz for the remaining time of the recording.
(§4) Graphs shown reflect either pooled or representative data (see figure legends). For concentration-response analysis, results from Ca^2+ mobilization experiments were plotted as ΔF/F0 vs. agonist concentration and fit to a sigmoidal concentration-response equation using the GraphPad Prism software package. In cases where biphasic concentration-response curves were observed data were fit to a two-site concentration-response model: F(X)=R0+(Rmax−R0)[Fr1/(1+10^X-logEC50,1)+(1−Fr1)/(1+10^X-logEC50,2)] (1) , where X is the logarithm of the agonist concentration, R0 and Rmax are respectively the response minimum and maximum; Fr1 is the response fraction attributable to receptor characterized by half effective concentration of the first response phase (EC50,1), with the reminder response attributable to the second half effective concentration (EC50,2). For radioligand binding experiments, B max values were calculated from maximum binding using the equation B max = (SB × ([…] + [L])/[L]), where SB is the specific binding expressed as fmol per mg of membrane protein, and [L] is the ligand concentration.

α1A-AR [4] = target: T1, α1A-AR; test: Ca2+ transient response (FLIPR) in α1A-AR_CHO stable cells; type: cell-based; parameters: expressed in transfected cells; settings: antagonist at 100 nM
Procedure: as §3, with “In experiments testing the effect of antagonists, 25 μL of buffer from wells of washed cells were replaced with 25 μL of vehicle or 4× antagonist solution. Pre-incubation of ligand with dye-loaded cells proceeded for 5–30 minutes immediately prior to measurements of agonist-evoked responses.” left out, “Image acquisition rates were varied from 1 Hz during the first 100 s of measurements to 0.5 Hz for the remaining time of the recording.” left out
IP1, IP2, and IP3 levels were determined via LC-MS. […]

α1A-AR [5] = settings: for α1A-AR; cited from earlier work
α1A-AR [6] = test: Ca2+ transient response (FLIPR, fluo3) in α1A-AR transduced HEK-293/EBNA cells; type: cell-based; settings: α1A-AR HEK-293/EBNA; RS100329 10 nM, ICI 118551 10 nM, atenolol 1 μM
Procedure: as §2, §3, §4

α1A-AR [7] = target: T1, α1A-AR; test: IP accumulation (IP-One HTRF) in α1A-AR transduced HEK-293/EBNA cells; type: cell-based; parameters: expressed in transfected cells; host or cells: HEK-293/EBNA (baculovirus transduction, NaBu induction); settings: 10 nM antagonist preincubation; large rightward shift in A-61603 potency
Procedure: as §2
After 10–20 minutes, 10 μL of agonist was added followed by incubation for 5 to 30 minutes. Stimulation was stopped by addition of lysis buffer. Second messenger levels were determined using a homogeneous immunoassay method with time-resolved FRET detection (IP-One HTRF, Cisbio International) according to protocols provided by the supplier. Sample fluorescence was measured with a Nanoscan plate reader (IOM, Berlin). Each data point represents the average of quadruplicate determinations and each experiment was performed at least two times independently.

β2-AR = target: T2, β2-AR (Homo sapiens, UniProt P07550); test: Ca2+ transient response (FLIPR, fluo3) in untransduced / negative control HEK-293/EBNA cells; type: cell-based; settings: non-transduced control cells; ICI 118551 10 nM, RS100329 10 nM, atenolol 1 μM
T2 construct: HEK-293/EBNA cells are known to express β2-AR endogenously; endogenous in cells; host or cells: HEK-293/EBNA (untransduced or negative-control transduced)
T2 sequence (P07550 whole entry): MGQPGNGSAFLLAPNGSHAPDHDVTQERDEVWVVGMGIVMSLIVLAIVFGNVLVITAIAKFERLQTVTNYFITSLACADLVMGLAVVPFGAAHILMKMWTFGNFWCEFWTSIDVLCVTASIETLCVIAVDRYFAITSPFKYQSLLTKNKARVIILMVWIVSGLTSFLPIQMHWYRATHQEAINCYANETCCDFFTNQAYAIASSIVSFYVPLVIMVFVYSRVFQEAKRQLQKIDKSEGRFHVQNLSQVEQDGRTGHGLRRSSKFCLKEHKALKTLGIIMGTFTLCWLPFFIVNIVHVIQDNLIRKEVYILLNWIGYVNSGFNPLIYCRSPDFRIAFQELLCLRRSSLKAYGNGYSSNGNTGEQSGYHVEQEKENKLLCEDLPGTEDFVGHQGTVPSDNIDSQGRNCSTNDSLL
Procedure: as §2
Cells were resuspended in Hank’s balanced salt solution (Invitrogen) supplemented with 2 mM CaCl2, 10 mM HEPES pH 7.4, 2.5 mM probenecid, plus 1g/L each of glucose and bovine serum albumin (BSA), and seeded in poly-D-lysine coated 96-well black plates with transparent bottom (Costar) at a density of 50,000 cells/0.1 mL per well. […] Agonist-evoked Ca^2+ mobilization responses of cell populations were monitored at room temperature simultaneously in all wells of the assay plate using the plate-imaging fluorometric reader FLIPR (MDS Analytical Technologies, Sunnyvale, CA). […]

Structure (SMILES): NC[C@H](O)c1ccc(O)c(O)c1 [NE, norepinephrine]
- cellular concentration of inositol phosphates IP1, IP2 and IP3 (α1A-AR [1]): concentration-dependent increases
- cellular levels of inositol phosphates IP1, IP2 and IP3 (α1A-AR [2]): concentration-dependent increases
- EC50 IP (HEK293/EBNA cells): BQL
- time to peak response amplitude post-agonist addition (α1A-AR [3]): ≤ 10 s

Structure (SMILES): Cc1c[nH]c(=O)n(CCCN2CCN(c3ccccc3OCC(F)(F)F)CC2)c1=O [RS100329]
- effect of antagonist pretreatment on Iso Ca2+ response (α1A-AR [4]): blocked
- pKB (α1A-AR [5]): 9.6
- effect of antagonist on Iso-evoked Ca2+ response (α1A-AR [6]): virtually complete blocking of the low potency phase
- effect of antagonist on A-61603-stimulated IP accumulation (α1A-AR [7]): significantly attenuated IP accumulation
- effect of antagonist on Iso-evoked Ca2+ response (β2-AR): ineffective

Structure (SMILES): CC(C)NCC(O)COc1ccc(CC(N)=O)cc1 (centres unmarked) [atenolol]
- effect of antagonist on Iso-evoked Ca2+ response (α1A-AR [6]): had no effect

Structure (SMILES): CC(C)NCC(O)COc1cccc2ccccc12 (centres unmarked) [propranolol]
- effect of antagonist pretreatment on Iso Ca2+ response (α1A-AR [4]): insensitive
